Literature values in PMC6442678 (Journal of medicinal chemistry, 2018).

Details: mice, 24h after injection ref 52

In the case of Mn-EDTA-BTA, the “injected Mn retained” value is given as greater than 50%.
